Source: ChEMBL document CHEMBL1681744, “1-((3S,4S)-4-amino-1-(4-substituted-1,3,5-triazin-2-yl) pyrrolidin-3-yl)-5,5-difluoropiperidin-2-one inhibitors of DPP-4 for the treatment of type 2 diabetes” (Bioorg Med Chem Lett, 2011)
Values belong to the compound of their own block, whether it stands above or below them. The source made the active and inactive calls. The rule behind the calls is not given here.

How the values were obtained:
Liver microsomes = experiment: Intrinsic clearance in human liver microsomes; assay type: ADME, Microsome
Dipeptidyl peptidase 4 = Dipeptidyl peptidase 4 (Homo sapiens, UniProt P27487)
Dipeptidyl peptidase 4, sequence (P27487 whole entry): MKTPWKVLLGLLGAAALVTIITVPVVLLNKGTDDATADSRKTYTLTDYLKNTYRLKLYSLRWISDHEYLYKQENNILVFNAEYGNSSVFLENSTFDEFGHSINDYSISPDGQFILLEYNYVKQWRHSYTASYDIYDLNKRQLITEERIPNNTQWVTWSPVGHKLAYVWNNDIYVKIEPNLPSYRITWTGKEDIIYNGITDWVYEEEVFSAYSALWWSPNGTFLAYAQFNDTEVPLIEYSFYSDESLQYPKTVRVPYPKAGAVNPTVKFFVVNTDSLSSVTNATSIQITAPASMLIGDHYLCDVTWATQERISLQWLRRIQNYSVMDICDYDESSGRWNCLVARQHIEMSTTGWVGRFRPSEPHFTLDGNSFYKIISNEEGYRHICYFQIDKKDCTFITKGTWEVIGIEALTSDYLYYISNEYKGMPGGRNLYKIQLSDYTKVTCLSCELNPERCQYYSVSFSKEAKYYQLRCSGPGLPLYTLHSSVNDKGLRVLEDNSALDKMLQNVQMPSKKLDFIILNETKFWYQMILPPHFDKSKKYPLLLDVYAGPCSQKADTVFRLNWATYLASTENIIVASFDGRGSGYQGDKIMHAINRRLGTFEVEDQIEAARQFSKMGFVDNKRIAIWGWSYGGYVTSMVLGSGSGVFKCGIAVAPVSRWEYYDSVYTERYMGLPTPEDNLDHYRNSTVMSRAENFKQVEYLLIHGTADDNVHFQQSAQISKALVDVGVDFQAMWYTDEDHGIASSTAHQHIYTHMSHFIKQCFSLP

[1] = Apparent permeability from apical to basolateral side of MDCK cells by RRCK assay; assay type: ADME, cell-based, Canis lupus familiaris; conditions: dog
[2] = Clearance in rat plasma at 1 mg/kg, iv and 5 mg/kg, po; assay type: ADME, organism-based
[3] = Volume of distribution at steady state in rat at 1 mg/kg, iv; assay type: ADME, organism-based; parameters: dose 1 mg/kg, route intravenous; conditions: in vivo, read-out: Vdss
[4] = Half life in rat at 1 mg/kg, iv and 5 mg/kg, po; assay type: ADME, organism-based; conditions: in vivo
[5] = Oral bioavailability in rat at 5 mg/kg; assay type: ADME, organism-based; conditions: in vivo
[6] = Fraction unbound in rat plasma; assay type: ADME, cell-free
Dipeptidyl peptidase 8 = Dipeptidyl peptidase 8 (Homo sapiens, UniProt Q6V1X1)
Dipeptidyl peptidase 8, sequence (Q6V1X1 whole entry): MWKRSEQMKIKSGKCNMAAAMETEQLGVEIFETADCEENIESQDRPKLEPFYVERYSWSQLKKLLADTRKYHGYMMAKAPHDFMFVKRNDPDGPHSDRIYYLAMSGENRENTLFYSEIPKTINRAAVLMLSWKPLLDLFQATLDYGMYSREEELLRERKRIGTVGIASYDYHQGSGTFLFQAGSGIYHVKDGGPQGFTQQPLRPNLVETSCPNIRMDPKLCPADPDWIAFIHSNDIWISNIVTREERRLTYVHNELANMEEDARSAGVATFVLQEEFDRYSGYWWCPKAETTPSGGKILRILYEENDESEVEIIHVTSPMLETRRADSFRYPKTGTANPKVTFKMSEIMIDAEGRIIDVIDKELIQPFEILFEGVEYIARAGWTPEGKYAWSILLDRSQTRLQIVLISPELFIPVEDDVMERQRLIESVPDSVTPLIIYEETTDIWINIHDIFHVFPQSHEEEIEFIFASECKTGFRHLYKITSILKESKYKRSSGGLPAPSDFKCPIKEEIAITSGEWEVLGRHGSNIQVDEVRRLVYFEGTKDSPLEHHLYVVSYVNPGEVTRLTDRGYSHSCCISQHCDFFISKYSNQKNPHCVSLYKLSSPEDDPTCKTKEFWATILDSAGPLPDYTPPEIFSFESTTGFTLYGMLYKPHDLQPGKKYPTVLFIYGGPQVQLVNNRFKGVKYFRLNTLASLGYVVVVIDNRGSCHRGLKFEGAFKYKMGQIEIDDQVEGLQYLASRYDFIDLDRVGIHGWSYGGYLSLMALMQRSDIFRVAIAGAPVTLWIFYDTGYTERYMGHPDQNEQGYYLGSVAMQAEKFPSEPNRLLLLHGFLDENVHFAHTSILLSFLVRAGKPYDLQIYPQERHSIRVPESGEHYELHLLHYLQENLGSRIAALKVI

[7] = Clearance in dog; assay type: ADME, organism-based, Canis lupus familiaris; conditions: in vivo
[8] = Volume of distribution at steady state in dog; assay type: ADME, organism-based, Canis lupus familiaris; conditions: in vivo, read-out: Vdss
[9] = Half life in dog; assay type: ADME, organism-based, Canis lupus familiaris; conditions: in vivo
[10] = Oral bioavailability in dog; assay type: ADME, organism-based, Canis lupus familiaris; conditions: in vivo
[11] = Fraction unbound in human plasma; assay type: ADME, cell-free
Cytochrome P450 1A2 = target: T1, Cytochrome P450 1A2 (Homo sapiens, UniProt P05177); experiment: Inhibition of CYP1A2; assay type: ADME
T1 sequence (P05177 whole entry): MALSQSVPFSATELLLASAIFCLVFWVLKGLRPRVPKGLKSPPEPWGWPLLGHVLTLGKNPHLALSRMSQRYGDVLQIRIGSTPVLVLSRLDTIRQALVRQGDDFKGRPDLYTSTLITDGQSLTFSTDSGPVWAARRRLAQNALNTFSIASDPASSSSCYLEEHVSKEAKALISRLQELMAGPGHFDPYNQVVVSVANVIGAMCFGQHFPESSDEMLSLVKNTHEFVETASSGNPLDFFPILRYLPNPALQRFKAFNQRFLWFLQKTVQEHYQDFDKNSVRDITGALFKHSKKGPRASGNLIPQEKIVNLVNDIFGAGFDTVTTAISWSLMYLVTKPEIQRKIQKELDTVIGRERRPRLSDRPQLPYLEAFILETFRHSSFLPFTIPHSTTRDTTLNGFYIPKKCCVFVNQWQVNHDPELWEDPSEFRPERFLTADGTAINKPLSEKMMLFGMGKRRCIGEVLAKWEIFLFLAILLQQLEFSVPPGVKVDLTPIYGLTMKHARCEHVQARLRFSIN

Cytochrome P450 2C9 = Cytochrome P450 2C9 (Homo sapiens, UniProt P11712); experiment: Inhibition of CYP2C9; assay type: ADME
Cytochrome P450 2C9, sequence (P11712 whole entry): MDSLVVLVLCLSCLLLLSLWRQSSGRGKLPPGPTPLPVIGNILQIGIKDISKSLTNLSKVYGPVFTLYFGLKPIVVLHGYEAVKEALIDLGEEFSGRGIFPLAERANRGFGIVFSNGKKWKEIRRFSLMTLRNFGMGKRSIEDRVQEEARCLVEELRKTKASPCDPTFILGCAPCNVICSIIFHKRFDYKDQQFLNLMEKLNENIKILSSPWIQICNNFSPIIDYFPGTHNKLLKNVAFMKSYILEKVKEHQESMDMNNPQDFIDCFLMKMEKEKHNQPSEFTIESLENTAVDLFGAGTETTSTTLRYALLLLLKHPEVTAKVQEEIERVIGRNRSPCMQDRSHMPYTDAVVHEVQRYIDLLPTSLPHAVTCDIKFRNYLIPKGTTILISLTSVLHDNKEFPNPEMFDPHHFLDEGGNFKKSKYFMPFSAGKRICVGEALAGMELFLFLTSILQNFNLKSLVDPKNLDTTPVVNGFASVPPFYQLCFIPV

Cytochrome P450 2D6 = Cytochrome P450 2D6 (Homo sapiens, UniProt P10635); experiment: Inhibition of CYP2D6; assay type: ADME
Cytochrome P450 2D6, sequence (P10635 whole entry): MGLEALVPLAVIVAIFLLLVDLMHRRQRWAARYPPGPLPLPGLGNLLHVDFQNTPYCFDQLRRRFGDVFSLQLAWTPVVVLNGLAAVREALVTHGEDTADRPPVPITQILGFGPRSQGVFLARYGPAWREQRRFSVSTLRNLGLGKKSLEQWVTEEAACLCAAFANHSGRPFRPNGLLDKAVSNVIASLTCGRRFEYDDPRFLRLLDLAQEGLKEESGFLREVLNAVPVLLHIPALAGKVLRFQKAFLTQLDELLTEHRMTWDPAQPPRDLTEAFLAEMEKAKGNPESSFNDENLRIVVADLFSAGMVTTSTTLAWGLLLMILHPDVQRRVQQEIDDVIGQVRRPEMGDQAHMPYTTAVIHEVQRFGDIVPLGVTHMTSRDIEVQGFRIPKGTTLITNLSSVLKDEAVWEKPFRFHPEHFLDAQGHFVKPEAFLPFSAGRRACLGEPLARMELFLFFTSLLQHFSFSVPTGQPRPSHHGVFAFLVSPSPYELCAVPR

Cytochrome P450 3A4 = Cytochrome P450 3A4 (Homo sapiens, UniProt P08684); experiment: Inhibition of CYP3A4; assay type: ADME
Cytochrome P450 3A4, sequence (P08684 whole entry): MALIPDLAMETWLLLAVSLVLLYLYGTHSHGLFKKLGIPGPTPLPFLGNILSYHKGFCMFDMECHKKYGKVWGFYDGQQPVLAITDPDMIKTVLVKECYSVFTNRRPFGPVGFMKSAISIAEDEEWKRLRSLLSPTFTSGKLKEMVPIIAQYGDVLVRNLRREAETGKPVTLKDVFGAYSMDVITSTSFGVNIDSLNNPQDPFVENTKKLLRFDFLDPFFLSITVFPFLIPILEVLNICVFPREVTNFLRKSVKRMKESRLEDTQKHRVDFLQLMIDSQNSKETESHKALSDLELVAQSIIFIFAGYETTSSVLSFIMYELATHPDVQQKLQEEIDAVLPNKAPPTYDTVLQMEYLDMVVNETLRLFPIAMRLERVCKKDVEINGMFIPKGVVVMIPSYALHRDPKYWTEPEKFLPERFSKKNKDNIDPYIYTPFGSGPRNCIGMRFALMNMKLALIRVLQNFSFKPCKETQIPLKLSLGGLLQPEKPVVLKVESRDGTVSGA

Rattus norvegicus = experiment: Ex vivo inhibition of DPP4 in rat at 5 mg/kg, po after 16 hrs; assay type: functional, organism-based; parameters: dose 5 mg/kg
Dipeptidyl peptidase 2 = Dipeptidyl peptidase 2 (Homo sapiens, UniProt Q9UHL4); experiment: Inhibition of DPP2

- clearance (Liver microsomes): < 7 µL/min/mg
- IC50 (Dipeptidyl peptidase 4): 488 nM
Structure (SMILES): N[C@H]1CN(c2cc(-c3cc(F)c(F)cc3F)ncn2)C[C@@H]1N1CCCC1=O

- Papp A→B [1]: 3.4 ×10⁻⁶ cm/s
- clearance [2]: 84 mL/min/kg
- Vd [3]: 5.7 L/kg
- half-life [4]: 2.4 h
- bioavailability [5]: 50%
- fraction unbound [6]: 0.82
- IC50 (Dipeptidyl peptidase 8): > 30000 nM
Structure (SMILES): N[C@H]1CN(c2cc(N3CCC(F)(F)C3)ncn2)C[C@@H]1N1CC(F)(F)CCC1=O

- Papp A→B [1]: 5 ×10⁻⁶ cm/s
- clearance [2]: 46 mL/min/kg
- Vd [3]: 8.4 L/kg
- half-life [4]: 3.6 h
- bioavailability [5]: 90%
- clearance [7]: 7.2 mL/min/kg
- Vd [8]: 1.9 L/kg
- half-life [9]: 5.9 h
- bioavailability [10]: 150%
- fraction unbound [11]: 0.83
- IC50 (Cytochrome P450 1A2): > 15000 nM
- IC50 (Cytochrome P450 2C9): > 15000 nM
- IC50 (Cytochrome P450 2D6): > 15000 nM
- IC50 (Cytochrome P450 3A4): > 15000 nM
- IC50 (Dipeptidyl peptidase 8): > 30000 nM
Structure (SMILES): N[C@H]1CN(c2ncnc(N3CCC(F)(F)C3)n2)C[C@@H]1N1CC(F)(F)CCC1=O

- clearance (Liver microsomes): < 7 µL/min/mg
Structure (SMILES): N[C@H]1CN(c2cc(NC3CC3)ncn2)C[C@@H]1N1CCCCC1=O

- clearance (Liver microsomes): < 7 µL/min/mg
Structure (SMILES): N[C@H]1CN(c2cc(N3CCc4nocc4C3)ncn2)C[C@@H]1N1CCCC1=O

- Papp A→B [1]: 3.8 ×10⁻⁶ cm/s
- clearance [2]: 36.8 mL/min/kg
- Vd [3]: 4.7 L/kg
- half-life [4]: 5 h
- bioavailability [5]: 52%
- fraction unbound [6]: 0.86
- IC50 (Dipeptidyl peptidase 8): > 30000 nM
Structure (SMILES): N[C@H]1CN(c2ncnc(N3CCC(F)(F)C3)n2)C[C@@H]1N1CCCCC1=O
- inhibition (Rattus norvegicus): Active

- clearance (Liver microsomes): < 7.2 µL/min/mg
- IC50 (Dipeptidyl peptidase 4): 47 nM
Structure (SMILES): N[C@H]1CN(c2cc(-c3cc(F)c(F)cc3F)ncn2)C[C@@H]1N1CCCCC1=O

- clearance (Liver microsomes): < 7 µL/min/mg
Structure (SMILES): N[C@H]1CN(c2cc(NC3CC3)ncn2)C[C@@H]1N1CCCC1=O

- clearance (Liver microsomes): 85 µL/min/mg
Structure (SMILES): N[C@H]1CN(c2cc(-c3cc(F)cc(F)c3F)ncn2)C[C@@H]1c1ccccc1

- clearance (Liver microsomes): < 7.5 µL/min/mg
- IC50 (Dipeptidyl peptidase 4): 12 nM
Structure (SMILES): N[C@H]1CN(c2cc(N3CCc4nocc4C3)ncn2)C[C@@H]1N1CCCCC1=O

- clearance (Liver microsomes): 38 µL/min/mg
- IC50 (Dipeptidyl peptidase 4): 19 nM
Structure (SMILES): N[C@H]1CN(c2cc(NC3CC3)ncn2)C[C@@H]1c1ccccc1

- Papp A→B [1]: 35.7 ×10⁻⁶ cm/s
- IC50 (Dipeptidyl peptidase 2): > 30000 nM
Structure (SMILES): N[C@H]1CN(c2ncnc(-c3ccccc3)n2)C[C@@H]1N1CCCCC1=O

- Papp A→B [1]: 1.8 ×10⁻⁶ cm/s
- clearance [2]: 60.1 mL/min/kg
- Vd [3]: 2.3 L/kg
- half-life [4]: 0.78 h
- bioavailability [5]: 21%
- fraction unbound [6]: 0.75
- IC50 (Dipeptidyl peptidase 4): 26 nM
- IC50 (Dipeptidyl peptidase 8): > 30000 nM
Structure (SMILES): N[C@H]1CN(c2cc(N3CCC(F)(F)C3)ncn2)C[C@@H]1N1CCCCC1=O
- inhibition (Rattus norvegicus): Active

- Papp A→B [1]: 2.7 ×10⁻⁶ cm/s
- IC50 (Dipeptidyl peptidase 2): > 30000 nM
Structure (SMILES): COc1ccc(-c2cc(N3C[C@H](N)[C@@H](N4CCCCC4=O)C3)ncn2)cn1

- clearance (Liver microsomes): 56 µL/min/mg
- IC50 (Dipeptidyl peptidase 4): 1.6 nM
Structure (SMILES): N[C@H]1CN(c2cc(N3CCc4nocc4C3)ncn2)C[C@@H]1c1ccccc1

- Papp A→B [1]: 3.9 ×10⁻⁶ cm/s
- IC50 (Dipeptidyl peptidase 4): 13 nM
- IC50 (Dipeptidyl peptidase 8): > 30000 nM
Structure (SMILES): Cc1nc(N2C[C@H](N)[C@@H](N3CC(F)(F)CCC3=O)C2)cc(N2CCC(F)(F)C2)n1
